test system: MV-4-11 cells; experiment: MV-4-11 cell proliferation assay (ATPlite); conditions: 3 days, read-out: Cell based (IC50 μM) MV-4-11 (Flt-3)
Protocol: Compounds are assessed in a variety of cell based assays. For example BCR-FMS/BaF3, BCR-KIT/BaF3, M-NFS-60, M-07e, and BAC1.2F5 cell proliferation assays are used to assess inhibitory activity of Fms or Kit and MV-4-11 cell proliferation assay is used to assess inhibitory activity in Flt-3. Reagent and assay conditions are as follows: • BCR-FMS/BaF3 and BCR-KIT/BaF3 cells: • Maintained in RPMI containing 10% FBS, 1% PenStrep, 1% NEAA, and 1% L-Glutamine, supplemented with 1 mg/mL G418 and 5% WEHI-CM (or recombinant murine IL-3). • Confluent cells are split 1:50 to 1:100 every 3-4 days. • M-NFS-60 cells (ATCC #CRL-1838): • Maintained in RPMI containing 10% FBS, 1% Hepes, 1% NaPyruvate, and 0.45% Glucose, supplemented with 62 ng/mL murine M-CSF. • Confluent cells are split 1:20 every 3-4 days. • M-07e cells (DSMZ #ACC 104): • Maintained in IMDM containing 10% FBS, supplemented with either 200 ng/mL human SCF or […] SCF (R&D Systems 255-SC). • Confluent cells are split 1:5 to 1:10 every 3-4 days. • BAC1.2F5 cells: • Maintained in Alpha-MEM containing 10% Newborn Calf Serum (Invitrogen #26010-074) supplemented with 36 ng/mL murine M-CSF. • Confluent cells are split 1:4 every 3-4 days. • MV-4-11 cells: • Maintained in Iscove's Modified Dulbecco's Medium containing 10% FBS. • Confluent cells are split 1:4 every 3-4 days. On day 1, cells are counted, then centrifuged in a conical tube for 5 minutes at 1000 rpm. The supernatant is removed and cells are re-suspended as follows: • BCR-FMS/BaF3 and BCR-KIT/BaF3: resuspend in growth media+1 mg/mL G418 (without WEHI/IL-3) to 2×10^5 cells/mL. • M-NFS-60: resuspend in growth media +62 ng/mL murine M-CSF to 5×10^5 cells/mL. • M-07e: resuspend in growth media +200 ng/mL human SCF to 5×10^5 cells/mL. • BAC1.2F5: resuspend in growth media +36 ng/mL murine M-CSF to 1.4×10^5 cells/mL. • MV-4-11: resuspend in growth media +10% FBS to 5×10^5 cells/mL. The cells are plated (50 μL) in each well of a 96-well dish (Corning 3610) and incubated at 37° C. in 5% CO2 overnight, cells plated to a final concentration of cells as follows: • BCR-FMS/BaF3 and BCR-KIT/BaF3: 10,000 cells per well. • M-NFS-60: 25,000 cells per well. • M-07e: 25,000 cells per well. • BAC1.2F5: 7,000 cells per well. • MV-4-11: 25,000 cells per well. On day 2, compound at a maximum concentration of 5 mM is serially diluted 1:3 for a total of 8 point titration with DMSO as a control. A 1 μL aliquot of each dilution point is added to 249 μL growth media and 50 μL is added to a well containing cells, providing 10 μM compound for the maximum concentration point. The cells are incubated for 3 days at 37° C. in 5% CO2. On day 5, ATPlite 1 step Luminescence Assay System (Perkin Elmer #6016739) is brought to room temperature along with the cell cultures. ATPlite is added to each well as follows: • BCR-FMS/BaF3 and BCR-KIT/BaF3: 25 μL per well. • M-NFS-60: 25 μL per well. • M-07c: 40 μL per well. • BAC1.2F5: 50 μL per well. • MV-4-11: 40 μL per well. The cells are incubated at room temperature for 10 minutes, then luminescence is read on Safire reader. The measured luminescence correlates directly with cell number, such that the reading as a function of compound concentration is used to determine the IC50 value.

| Structure (SMILES) | IC50 [µM] |
| --- | --- |
| Clc1cnc2[nH]cc(Cc3ccc(NCc4ccc(Cl)nc4)nc3)c2c1 [Compound P-2003] | > 0.1 |

same assay, conditions: Homo sapiens, MV4-11, 72 h, 3 days, read-out: Cell based (IC50 μM) MV-4-11 (Flt-3)

| Structure (SMILES) | IC50 [µM] |
| --- | --- |
| COc1ccc(CNc2ccc(Cc3c[nH]c4ncc(C)cc34)c(F)n2)cn1 [Compound P-2029, [6-Fluoro-5-(5-methyl-1H-pyrrolo[2,3-b]pyridin-3-ylmethyl)-pyridin-2-yl]-(6-methoxy-pyridin-3-ylmethyl)-amine] | < 0.1 |
| COc1cnc2[nH]cc(Cc3ccc(NCc4ccc(OC)nc4)nc3F)c2c1 [Compound P-2030, [6-Fluoro-5-(5-methoxy-1H-pyrrolo[2,3-b]pyridin-3-ylmethyl)-pyridin-2-yl]-(6-methoxy-pyridin-3-ylmethyl)-amine] | < 0.1 |
| Cc1cnc2[nH]cc(Cc3ccc(NCc4ccc(C(F)(F)F)nc4)nc3F)c2c1 [Compound P-2031, [6-Fluoro-5-(5-methyl-1H-pyrrolo[2,3-b]pyridin-3-ylmethyl)-pyridin-2-yl]-(6-trifluoromethyl-pyridin-3-ylmethyl)-amine] | < 0.1 |
| COc1cnc2[nH]cc(Cc3ccc(NCc4ccc(Cl)cc4)nc3F)c2c1 [Compound P-2032, (4-Chloro-benzyl)-[6-fluoro-5-(5-methoxy-1H-pyrrolo[2,3-b]pyridin-3-ylmethyl)-pyridin-2-yl]-amine] | < 0.1 |
| COc1cnc2[nH]cc(Cc3ccc(NCc4ccccc4Cl)nc3F)c2c1 [Compound P-2034, (2-chloro-benzyl)-[6-fluoro-5-(5-methoxy-1H-pyrrolo[2,3-b]pyridin-3-ylmethyl)-pyridin-2-yl]-amine] | > 0.1 |
| COc1ccnc2[nH]cc(Cc3ccc(NCc4ccc(Cl)cc4)nc3F)c12 [Compound P-2037, (4-Chloro-benzyl)-[6-fluoro-5-(4-methoxy-1H-pyrrolo[2,3-b]pyridin-3-ylmethyl)-pyridin-2-yl]-amine] | > 0.1 |
| COc1ccc(CNc2ncc(Cc3c[nH]c4ncc(Cl)cc34)cn2)cn1 [Compound P-2038, [5-(5-Chloro-1H-pyrrolo[2,3-b]pyridin-3-ylmethyl)-pyrimidin-2-yl]-(6-methoxy-pyridin-3-ylmethyl)-amine] | < 0.1 |
| Fc1nc(NCc2ccc(Cl)cn2)ccc1Cc1c[nH]c2ncccc12 [Compound P-2044, (5-Chloro-pyridin-2-ylmethyl)-[6-fluoro-5-(1H-pyrrolo[2,3-b]pyridin-3-ylmethyl)-pyridin-2-yl]-amine] | < 0.1 |
| COc1ccc(CNc2ncc(Cc3c[nH]c4ncc(C)cc34)cn2)cn1 [Compound P-2057, (6-Methoxy-pyridin-3-ylmethyl)-[5-(5-methyl-1H-pyrrolo[2,3-b]pyridin-3-ylmethyl)-pyrimidin-2-yl]-amine] | < 0.1 |
| COc1ncc(CNc2ccc(Cc3c[nH]c4ncc(Cl)cc34)c(F)n2)cc1F [Compound P-2165, [5-(5-Chloro-1H-pyrrolo[2,3-b]pyridin-3-ylmethyl)-6-fluoro-pyridin-2-yl]-(5-fluoro-6-methoxy-pyridin-3-ylmethyl)-amine] | > 0.1 |

Reference: patent US9096593B2, “Compounds and methods for kinase modulation, and indications therefor” (Plexxikon Inc., priority 2009, dated 2015)
